Reference: article PMC4798879 (Nature chemical biology, 2016)
Values belong to the molecule of their own block, whether it stands above or below them.

What was measured:
H2122 cells = experiment: Compound stability in cell lines, H2122; type: in vitro ADME, human
sebocytes = experiment: In vivo toxicity study, sebocytes in skin of CD-1 mice; set-up: species or system mouse; settings: 20 mg/kg once a day for two weeks
[1] = Pharmacokinetic studies in CD-1 mice; type: in vivo, mouse; settings: 6 and 20 mg/kg
H2122 = experiment: Compound concentration response, viability; type: cell-based, human; settings: read-out: IC50 (concentration that resulted in 50% less viability); H2122 cells
[2] = Body weight loss in xenograft experiments; type: in vivo, mouse; settings: once daily dosing
H2122 derived tumors = experiment: Xenograft experiment, H2122 derived tumors in Nod-Scid mice; type: in vivo, mouse; settings: 20 mg/kg once daily
[3] = test system: panel of 12 NSCLC cell lines; experiment: Concentration-response toxicity across panel of NSCLC cell lines; type: cell-based, human

SMILES: CCCCc1ccc(N=CNO)c(C)c1 [HET0016]
effect on SW208108 metabolism (H2122 cells): inhibited both the loss of SW208108 and the generation of dMe-SW208108
effect on binding of SW208108 to SCD (SCD (p37 and p30); H2122, 0.1 µM SW208108): inhibited the binding of SW208108 to SCD in a dose dependent fashion
effect on ability of dMe-SW208108 to bind SCD (SCD (p37 and p30); H2122, 0.1 µM dMe-SW208108): no effect

pharmacokinetic properties [1]: favorable pharmacokinetic properties
IC50 (H2122): 95 nM
SMILES: O=C(NCCC1CC1)c1ccc(N2CCN(C(=O)c3cc(F)ccc3C(F)(F)F)CC2)nn1 [Xenon-45]
sebocytes in hair follicles of skin (sebocytes): devoid of sebocytes
Weight loss [2]: up to 7%
growth of H2122 tumors (H2122 derived tumors): no efficacy

SMILES: COc1ccc(CCNC(=O)C(=O)Nc2ccc(Cl)cc2)cc1 [SW027951]
toxicity in eight of the remaining ten cell lines ([3]; 6 μM): insensitive
toxicity in HCC44 and HCC95 ([3]; HCC44 and HCC95 cell lines): intermediate toxicity
